Square brackets hold non-standard residues; d marks the D form. Peptide text beside a SMILES is read from it. * marks the point of attachment. Dansyl = CN(C)c1cccc2c(S(=O)(=O)*)cccc12; Dmt = Cc1cc(O)cc(C)c1C[C@H](N)C(=O)O; 2Abz = Nc1ccccc1C(=O)O; Dap = NC[C@H](N)C(=O)O; Sar = CNCC(=O)O
Key:
Caco-2 cells [1] = assay: Confocal laser scanning microscopy of fluorescent peptide uptake, Caco-2 cells; assay type: cell-based; conditions: 0.1 μM, 15 min at 37° C.
Method: (§1) Confocal Laser Scanning Microscopy. The uptake of aromatic-cationic peptides into cells was confirmed by confocal laser scanning microscopy (CLSM) using two fluorescent peptides, [Dmt^1,dnsDap^4]DALDA (Dmt-D-Arg-Phe-dnsDap-NH2, where dnsDap is β-dansyl-1-α-β-diamino-propionic acid) and [Dmt^1.atnDap^4]DALDA (Dmt-D-Arg-Phe-atnDap-NH2, where atn is β-anthraniloyl-L-α-β-diaminopropionic acid). Caco-2 cells or SH-SYSY cells were grown as described above and were plated on (35-mm) glass bottom dishes (MatTek, Ashland, Mass.) for 2 days. The medium was then removed, and cells were incubated with 1 ml of HBSS containing 0.1 μM of the fluorescent peptide at either 4° C. or 37° C. for 15 min. Cells were then washed three times with ice-cold HESS and covered with 200 μl of PBS, and microscopy was performed within 10 min at room temperature using a confocal laser scanning microscope with a C-Apochromat 63×/1.2 W torr objective (Nikon, Tokyo, Japan). Excitation/emission wavelengths were set at 340/520 nm for [Dmt^1,dnsDap^4]DALDA and 320/420 nm for [Dmt^1,atnDap^4]-DALDA, respectively. For optical sectioning in z-direction, 5 to 10 frames with […] were made.

Caco-2 cells [2] = assay: Uptake of peptide-β-Gal conjugates into cells (β-gal staining); assay type: cell-based; conditions: 1 h at 37° C.
Source text: Conjugation of protein to [Dmt1]DALDA. was cross-linked to β-galactosidase (recombinant E. coli, Sigma-Aldrich) using a cross-linker SMCC (succinimidyl 4-(N-maleimidomethyl)yclohexane-1-carboxylate)(Pierce). […] Its maleimide end can then be conjugated to a sulfhydryl-containing compound to create a thioether linkage (Bioconjugate Techniques by Greg T. Hermanson, Academic Press, page 234-237). β-Gal contains abundant free sulfhydryl groups in its native state. The uptake of β-Gal provides a convenient read-out with the use of X-gal. […] This should result in “activated peptide.” The “activated peptide” was diluted 1:10 with phosphate buffer. 1 mg of β-Gal was added to 1 ml of the 1:10 “activated peptide” and mixed at 4° C. for either 2 h or overnight.
Assay for [Dmt1]DALDA-protein conjugate uptake into cells. […] Cells were then washed 4 times with PBS. The cells were then stained with β-gal staining set (Roche) for at least 2 h at 37° C. and examined under the microscope.
This should result in “activated peptide.” The “activated peptide” was diluted 1:10 with phosphate buffer. 1 mg of β-Gal was added to 1 ml of the 1:10 “activated peptide” and mixed at 4° C. for either 2 h or overnight.
Cells were then washed 4 times with phosphate buffer. The cells were then stained with β-gal staining set (Roche) for at least 2 h at 37° C. and examined under the microscope.

Huh7 cells = assay: Cell viability by trypan blue uptake; assay type: cell-based; conditions: 50 μl of 1 mM conjugate in 1 ml medium, 24 hours at 37° C.
Method: Trypan blue is only taken by cells with increased membrane permeability. Huh7 cells (1×10^6) were washed three times in DMEM, and 1 ml of fresh medium, or media containing 50 μl of 1 mM [Dmt^1]DALDA-SMCC conjugate, [D-Arg-Dmt-Lys-Phe-NH2]-SMCC conjugate, or [Phe^1]DALDA-SMCC conjugate, and incubated at 37° C. for 24 hours at 5% CO2. Cells were then washed three times with DMEM, and 1 ml of 0.4% trypan blue was added to the cells for 2 minutes. Excessive dye was removed by washing cells in cell medium and the cells were examined by light microscopy.

Caco-2 cells [3] = assay: Assay for peptide uptake in Caco-2 cells; assay type: cell-based
Source text: Assay for Peptide Uptake.

Caco-2 cells [4] = assay: Assay for peptide efflux from Caco-2 cells; assay type: cell-based
Method: Assay for Peptide Efflux from CaCo-2 Cells. […] Cells were then washed four times with 1 ml of ice-cold incubation solution to terminate uptake and then incubated with 0.5 ml of MEM for 1 h at either 37 or 4° C. to measure the efflux of peptide from cells to the incubation medium. The amount of radioactivity was determined in cell lysates and in the incubation medium.

[5] = Peptide translocation across Caco-2 monolayers (Transwell, apical-to-basolateral); assay type: in vitro ADME; conditions: Caco-2; apical-to-basolateral; read-out: apparent permeability coefficient
Method: (§2) Assay for Peptide Translocation across Caco-2 Monolayers. Monolayers of Caco-2 cells were prepared as described previously (Irie et al., J. Pharmacol. Exp. Ther. 2001, 298: 711-717), Caco-2 cells (2×10^5) were seeded on microporous membrane filters (24 mm, […]) inside Transwell cell culture chambers (Corning Glassworks, Corning, N.Y.). Each Transwell chamber was filled with 1.5 ml of medium in the apical compartment and 2.5 ml in the basolateral compartment. The cell monolayers were given fresh medium every 1 to 2 days and were used on day 28 for transport experiments.
(§3) The apparent permeability coefficient was calculated according to the following equation: Papp=X/(t·A·Co), where X/t is the rate of uptake in the receiver compartment, A is the diffusion area (4.72 cm^2), and Co is the initial concentration in the donor compartment.

Caco-2 monolayer = assay: as above; assay type: in vitro ADME; conditions: 60 min
Method: as §2, §3

Caco-2 cells [6] = conditions: Terada et al. 1999; confirmed in this study (FIG. 2B); cited from earlier work
SH-SY5Y cells = assay: Confocal laser scanning microscopy of fluorescent peptide uptake, SH-SY5Y cells; assay type: cell-based; conditions: 0.1 μM, 30 min at 4° C.
Method: as §1, with “The medium was then removed, and cells were incubated with 1 ml of HBSS containing 0.1 μM of the fluorescent peptide at either 4° C. or 37° C. for 15 min.” left out

Cc1cc(O)cc(C)c1C[C@H](N)C(=O)N[C@H](CCCNC(=N)N)C(=O)N[C@@H](Cc1ccccc1)C(=O)N[C@@H](CNS(=O)(=O)c1cccc2c(N(C)C)cccc12)C(N)=O [[Dmt^1,dnsDap^4]DALDA, Dmt-D-Arg-Phe-dnsDap-NH2] (H-[Dmt][dR]F[Dap](Dansyl)-NH2; N-terminus assumed)
intracellular distribution of fluorescence (Caco-2 cells [1]): diffuse throughout the cytoplasm with no apparent vesicular distribution | nuclear localisation of fluorescence (Caco-2 cells [1]): completely excluded from the nucleus | intracellular distribution of fluorescence (Caco-2 cells [1]; dnsDap^4]DALDA): diffuse throughout the cytoplasm

β-Gal with SMCC: β-Gal conjugated with SMCC alone, without peptide (control) [reference compound]
uptake of β-Gal into cells (blue cells) (Caco-2 cells [2]): did not enhance uptake

N=C(N)NCCC[C@@H](NC(=O)[C@@H](N)Cc1ccccc1)C(=O)N[C@@H](Cc1ccccc1)C(=O)N[C@@H](CCCCN)C(N)=O [[Phe^1]DALDA, Phe-D-Arg-Phe-Lys-NH2] (H-F[dR]FK-NH2; N-terminus assumed)
trypan blue uptake (cell viability) (Huh7 cells): No increase in trypan blue uptake

CCOC(=O)OC(=O)OCC [DEPC, diethylpyrocarbonate, reference compound]
trypan blue uptake (cell viability) (Huh7 cells): significant uptake of trypan blue

CN(CC(=O)O)C(=O)CN [Gly-Sar, reference compound] (H-Gly-[Sar]-OH)
effect of DEPC on uptake (Caco-2 cells [3]; 0.2 mM DEPC): significantly inhibited | effect of 4° C. on uptake (Caco-2 cells [3]; 4° C. versus 37° C.): completely abolished | time course of uptake (Caco-2 cells [3]; 37° C., 50 μM): continued to increase from 5 to 45 min | effect of temperature (4° C.) on efflux (Caco-2 cells [4]; 4° C. versus 37° C.): significantly reduced | peptide effluxed into medium (Caco-2 cells [4]; preloaded 1 h, 1 h efflux at 37° C.): 39% | Papp A→B [5]: 12.6 ×10⁻⁶ cm/s | percentage translocated from the apical to the basolateral side (Caco-2 monolayer): 11.9% | pH of optimal uptake (by PEPT1) (Caco-2 cells [6]): 6.0

β-Gal: β-galactosidase (recombinant E. coli, Sigma-Aldrich), protein cargo
uptake of β-Gal into cells (blue cells) (Caco-2 cells [2]): no uptake

Cc1cc(O)cc(C)c1C[C@H](N)C(=O)N[C@H](CCCNC(=N)N)C(=O)N[C@@H](Cc1ccccc1)C(=O)N[C@@H](CNC(=O)c1ccccc1N)C(N)=O [[Dmt^1,atnDap^4]DALDA, Dmt-D-Arg-Phe-atnDap-NH2] (H-[Dmt][dR]F[Dap](2Abz)-NH2; N-terminus assumed)
internalization at 4° C. (SH-SY5Y cells): energy-independent non-endocytotic uptake mechanism

— patent US11845807B2, “Method and carrier complexes for delivering molecules to cells” (priority 2003, dated 2023)
